# Test results reported in patent EP4768484A1, “HETEROCYCLIC FUSED RING COMPOUND, AND COMPOSITION AND USE THEREOF” (Shenzhen TargetRx, Inc., priority 2023, dated 2025).
# Key:
# Format in all cases: cell-based
# Ba/F3 BCR-ABL1 T315M = target: T1, Ba/F3 BCR-ABL1 T315M (Homo sapiens, UniProt P00519+P11274, T315M); experiment: Cell growth inhibitory activity assay (CellTiter-Glo), Ba/F3 BCR-ABL1 T315M cells; details: 72 h, CTG cell viability
# T1 construct: BCR (N-terminal fusion partner of the oncoprotein); expressed in transfected cells; host or cells: Ba/F3 (lentiviral transduction, monoclonal line)
# Experimental: (§1) In this assay, the Celltiter-Glo (CTG) kit provided by Promega was used, and it is a homogeneous cell viability assay method. The cell viability of cultured cells was measured by quantifying ATP. K562 cells were purchased from Nanjing Kebai, product number CBP60529; Ba/F3 parental cells were purchased from RIKEN BRC, product number RCB0805; other cells containing BCR-ABL1 WT, BCR-ABL1 T315I, BCR-ABL1 T315M, BCR-ABL1 Y253H/E255K, BCR-ABL1 E255V/T3151, BCR-ABL1 A424T, BCR-ABL1 A337V, BCR-ABL1 P465S, BCR-ABL1 V468F, and BCR-ABL1 I502L were all monoclonal engineered cell lines obtained by transducting Ba/F3 parental cells with the lentivirus plasmids containing WT or corresponding mutated BCR-ABL1.
# (§2) The steps of cell viability assay are as follows: • a) Cells in logarithmic growth phase were collected. Cell suspension was prepared and the cells were counted. Concentration of the cells was calculated. • b) The cell suspension was diluted to the required concentration and then added to the middle wells of a 96-well plate, and PBS was added to the edge wells. The wells with no cells and only culture medium were used as blank controls. • c) In addition to the cell plate used for compound analysis, another 96-well plate was prepared as a T0 plate, and 3-6 blank wells and 3-6 cell wells were added. The next day, CTG was used to test the cell viability as the T0 viability value of the cells. • d) The cell plate was incubated at 37 °C in a 5% CO2 incubator overnight. • e) The next day, each concentration of a compound subjected to a gradient dilution was added, and the cell plate was incubated at 37 °C in a 5% CO2 incubator for 72 h. The wells with no compound and only 0.5% DMSO were used as positive controls for cell growth. • f) CTG reagent (CellTiter-Glo kit) was added according to the manufacturer's instructions to test the cell viability value. • g) The plate was read using Biotek cytation3.0 microplate reader and the data were exported. • h) IC50 was calculated using GraphPad Prism 7.0 software.
# (§3) The IC50 (half-maximal inhibitory concentration) of the compound was obtained using the following nonlinear fitting formula: Y = Bottom + (Top−Bottom)/(1+10^(∧)((LogIC50−X)*HillSlope)) [formula] • X: Log value of the compound concentration • Y: Inhibition rate (% inhibition) • Top: Maximum response • Bottom: Baseline response • HillSlope: Slope of the curve
# (§4) The formula for calculating cell inhibition rate (inhibition rate %) was: [formula]
# K562 cells = experiment: Cell growth inhibitory activity assay (CellTiter-Glo), K562 cells; details: Homo sapiens, 72 h, CTG cell viability
# In short: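 Growth inhibition of human K562 cells, sourced from Nanjing Kebai (CBP60529), was assessed with Promega's CellTiter-Glo kit, which measures viability through ATP quantification. Log-phase cells went into the inner wells of 96-well plates, with PBS in edge wells, incubated overnight at 37 °C and 5% CO2, then exposed to serially diluted compound for 72 h.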
# Ba/F3 BCR-ABL1 T315I = target: T2, Ba/F3 BCR-ABL1 T315I (Homo sapiens, UniProt P00519+P11274, T315I); experiment: Cell growth inhibitory activity assay (CellTiter-Glo), Ba/F3 BCR-ABL1 T315I cells; details: 72 h, CTG cell viability
# T2 construct: BCR (N-terminal fusion partner of the oncoprotein); expressed in transfected cells; host or cells: Ba/F3 (lentiviral transduction, monoclonal line)
# In short: (§5)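 Ba/F3 lines stably transduced by lentivirus with WT or mutant BCR-ABL1, alongside untransduced parental Ba/F3, were seeded and incubated overnight at 37 °C, 5% CO2, then exposed to serially diluted compound for 72 h. Viability was read as ATP by CellTiter-Glo luminescence against a day-of-dosing T0 plate; IC50 from four-parameter nonlinear fit.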
# Ba/F3 parental cells = experiment: Cell growth inhibitory activity assay (CellTiter-Glo), Ba/F3 parental cells; details: Mus musculus, BaF3, 72 h, CTG cell viability, read-out: IC50 Ba/F3 BCR-ABL1 Parental
# In short: as §5
# Ba/F3 BCR-ABL1 WT = target: T3, Ba/F3 BCR-ABL1 WT (Homo sapiens, UniProt P00519+P11274); experiment: Cell growth inhibitory activity assay (CellTiter-Glo), Ba/F3 BCR-ABL1 WT cells; details: 72 h, CTG cell viability
# T3 construct: BCR (N-terminal fusion partner of the oncoprotein); expressed in transfected cells; host or cells: Ba/F3 (lentiviral transduction, monoclonal line)
# In short: as §5
# [1] = target: T4, Ba/F3 BCR-ABL1 Y253H/E255K (Homo sapiens, UniProt P00519+P11274, E255K/Y253H); experiment: Cell growth inhibitory activity assay (CellTiter-Glo), Ba/F3 BCR-ABL1 Y253H/E255K cells; details: 72 h, CTG cell viability
# T4 construct: BCR (N-terminal fusion partner of the oncoprotein); expressed in transfected cells; host or cells: Ba/F3 (lentiviral transduction, monoclonal line)
# Experimental: as §1, §2, §3, §4
# [2] = target: T5, Ba/F3 BCR-ABL1 E255V/T315I (Homo sapiens, UniProt P00519+P11274, E255V/T315I); experiment: Cell growth inhibitory activity assay (CellTiter-Glo), Ba/F3 BCR-ABL1 E255V/T315I cells; details: 72 h, CTG cell viability
# T5 construct: BCR (N-terminal fusion partner of the oncoprotein); expressed in transfected cells; host or cells: Ba/F3 (lentiviral transduction, monoclonal line)
# Experimental: as §1, §2, §3, §4
Structure (SMILES),IC50 (Ba/F3 BCR-ABL1 T315M) [nM],IC50 (K562 cells) [nM],IC50 (Ba/F3 BCR-ABL1 T315I) [nM],IC50 (Ba/F3 parental cells) [nM],IC50 (Ba/F3 BCR-ABL1 WT) [nM],IC50 [1] [nM],IC50 [2] [nM]
"C[C@@H]1CCS(=O)(=O)c2nc3cc(C(=O)Nc4ccc(OC(F)(F)Cl)cc4)cc(-c4cnc5c(c4)C(=O)N(C)C5)c3n21 [T-28, (R)-N-(4-(chlorodifluoromethoxy)phenyl)-4-methyl-6-(6-methyl-5-oxo-6,7-dihydro-5H-pyrrolo[3,4-b]pyridin-3-yl)-3,4-dihydro-2H-benzo[4,5]imidazo[2,1-b][1,3]thiazine-8-carboxamide 1,1-dioxide]",50 to 1000,≤ 5,5 to 50,> 1000,5 to 50,,
"C[C@@H]1COCc2nc3cc(C(=O)Nc4ccc(OC(F)(F)Cl)cc4)cc(-c4cnc5c(c4)C(=O)NC5)c3n21 [T-30, (R)-N-(4-(chlorodifluoromethoxy)phenyl)-4-methyl-6-(5-oxo-6,7-dihydro-5H-pyrrolo[3,4-b]pyridin-3-yl)-3,4-dihydro-1H-benzo[4,5]imidazo[2,1-c][1,4]oxazine-8-carboxamide]",5 to 50,≤ 5,50 to 1000,> 1000,≤ 5,,
"C[C@@H]1CCC(O)c2nc3cc(C(=O)Nc4ccc(OC(F)(F)Cl)cc4)cc(-c4cnc5c(c4)C(=O)N(C4CC4)C5)c3n21 (stereo partly drawn) [T-32, (1R)-N-(4-(chlorodifluoromethoxy)phenyl)-9-(6-cyclopropyl-5-oxo-6,7-dihydro-5H-pyrrolo[3,4-b]pyridin-3-yl)-4-hydroxy-1-methyl-1,2,3,4-tetrahydrobenzo[4,5]imidazo[1,2-a]pyridine-7-carboxamide]",50 to 1000,≤ 5,50 to 1000,> 1000,≤ 5,,
"C[C@@H]1CCC(O)c2nc3cc(C(=O)Nc4ccc(OC(F)(F)Cl)cc4)cc(-c4cnc5c(c4)C(=O)NC5)c3n21 (stereo partly drawn) [T-33, (1R)-N-(4-(chlorodifluoromethoxy)phenyl)-4-hydroxy-1-methyl-9-(5-oxo-6,7-dihydro-5H-pyrrolo[3,4-b]pyridin-3-yl)-1,2,3,4-tetrahydrobenzo[4,5]imidazo[1,2-a]pyridine-7-carboxamide]",50 to 1000,≤ 5,50 to 1000,> 1000,5 to 50,,
C[C@@H]1CCC(F)c2nc3cc(C(=O)Nc4ccc(OC(F)(F)Cl)cc4)cc(-c4cnc5c(c4)C(=O)N(C4CC4)C5)c3n21 (stereo partly drawn) [T-35],5 to 50,≤ 5,5 to 50,> 1000,≤ 5,,
"C[C@@H]1CN(C)CCc2nc3cc(C(=O)Nc4ccc(OC(F)(F)Cl)cc4)cc(-c4cnc5c(c4)C(=O)N(C4CC4)C5)c3n21 [T-37, (R)-N-(4-(chlorodifluoromethoxy)phenyl)-10-(6-cyclopropyl-5-oxo-6,7-dihydro-5H-pyrrolo[3,4-b]pyridin-3-yl)-1,3-dimethyl-2,3,4,5-tetrahydro-1H-benzo[4,5]imidazo[1,2-d][1,4]diazepine-8-carboxamide]",> 1000,50 to 1000,> 1000,> 1000,> 1000,,
"C[C@@H]1CCOCc2nc3cc(C(=O)Nc4ccc(OC(F)(F)Cl)cc4)cc(-c4cnc5c(c4)C(=O)N(C)C5)c3n21 [T-39, (R)-N-(4-(chlorodifluoromethoxy)phenyl)-5-methyl-7-(6-methyl-5-oxo-6,7-dihydro-5H-pyrrolo[3,4-b]pyridin-3-yl)-4,5-dihydro-1H,3H-benzo[4,5]imidazo[2,1-c][1,4]oxazepine-9-carboxamide]",> 1000,≤ 5,50 to 1000,> 1000,≤ 5,,
"CC(=O)n1cc2c(n1)-c1cc(-c3cc(C(=O)Nc4ccc(OC(F)(F)Cl)cc4)cc4nc5n(c34)[C@H](C)COC5)cnc1C2 [T-43, (R)-6-(2-acetyl-2,4-dihydropyrazolo[3',4':3,4]cyclopenta[1,2-b]pyridin-7-yl)-N-(4-(chlorodifluoromethoxy)phenyl)-4-methyl-3,4-dihydro-1H-benzo[4,5]imidazo[2,1-c][1,4]oxazine-8-carboxamide]",50 to 1000,≤ 5,≤ 5,> 1000,≤ 5,,
"C[C@@H]1COCc2nc3cc(C(=O)Nc4ccc(OC(F)(F)Cl)cc4)cc(-c4cnc5c(c4)-c4nn(-c6ccncn6)cc4C5)c3n21 [T-67, (R)-N-(4-(chlorodifluoromethoxy)phenyl)-4-methyl-6-(2-(pyrimidin-4-yl)-2,4-dihydropyrazolo[3',4':3,4]cyclopenta[1,2-b]pyridin-7-yl)-3,4-dihydro-1H-benzo[4,5]imidazo[2,1-c][1,4]oxazine-8-carboxamide]",,≤ 5,≤ 5,> 1000,≤ 5,≤ 5,
"Cc1ccnc(-n2cc3c(n2)-c2cc(-c4cc(C(=O)Nc5ccc(OC(F)(F)Cl)cc5)cc5nc6n(c45)[C@H](C)COC6)cnc2C3)n1 [T-73, (R)-N-(4-(chlorodifluoromethoxy)phenyl)-4-methyl-6-(2-(4-methylpyrimidin-2-yl)-2,4-dihydropyrazolo[3',4':3,4]cyclopenta[1,2-b]pyridin-7-yl)-3,4-dihydro-1H-benzo[4,5]imidazo[2,1-c][1,4]oxazine-8-carboxamide]",≤ 5,≤ 5,≤ 5,> 1000,≤ 5,,
"C[C@@H]1COCc2nc3cc(C(=O)Nc4ccc(OC(F)(F)Cl)cc4)cc(-c4cnc5c(c4)-c4nn(-c6ncc(C#N)cn6)cc4C5)c3n21 [T-78, (R)-N-(4-(chlorodifluoromethoxy)phenyl)-6-(2-(5-cyanopyrimidin-2-yl)-2,4-dihydropyrazolo[3',4':3,4]cyclopenta[1,2-b]pyridin-7-yl)-4-methyl-3,4-dihydro-1H-benzo[4,5]imidazo[2,1-c][1,4]oxazine-8-carboxamide]",,≤ 5,≤ 5,> 1000,≤ 5,≤ 5,≤ 5
"C[C@@H]1CC[S+]([O-])c2nc3cc(C(=O)Nc4ccc(OC(F)(F)Cl)cc4)cc(-c4cnccn4)c3n21 (stereo partly drawn) [T-117, (4R)-N-(4-(chlorodifluoromethoxy)phenyl)-4-methyl-6-(pyrazin-2-yl)-3,4-dihydro-2H-benzo[4,5]imidazo[2,1-b][1,3]thiazine-8-carboxamide 1-oxide]",> 1000,≤ 5,5 to 50,> 1000,≤ 5,,
"C[C@@H]1CCS(=O)(=O)c2nc3cc(C(=O)Nc4ccc(OC(F)(F)Cl)cc4)cc(-c4cnccn4)c3n21 [T-118, (R)-N-(4-(chlorodifluoromethoxy)phenyl)-4-methyl-6-(pyrazin-2-yl)-3,4-dihydro-2H-benzo[4,5]imidazo[2,1-b][1,3]thiazine-8-carboxamide 1,1-dioxide]",50 to 1000,≤ 5,5 to 50,> 1000,≤ 5,,
